Assay results: patent US8012975B2, “Antitumoral analogs of ET-743” (Pharma Mar, S.A., priority 2000, dated 2011)
pIC50: −log10 of the molar value. Where two headings read alike, the source gives them in different places.

Assays:
5637 = experiment: Cytotoxic activity (M) panel, Bladder 5637; conditions: read-out: CYTOTOXIC ACTIVITY (M) 5637
OSA-FH = experiment: Cytotoxic activity (M) panel, Osteosarcoma OSA-FH; conditions: read-out: CYTOTOXIC ACTIVITY (M) OSA-FH
786-O = experiment: Cytotoxic activity (M) panel, Renal 786-O; conditions: Homo sapiens, 786-0, read-out: CYTOTOXIC ACTIVITY (M) 786-O
SK-OV-3 = experiment: Cytotoxic activity (M) panel, Ovary SK-OV-3; conditions: Homo sapiens, SK-OV-3, read-out: CYTOTOXIC ACTIVITY (M) SK-OV-3
PC3 = experiment: Cytotoxic activity (M) panel, Prostate PC3; conditions: Homo sapiens, PC-3, read-out: CYTOTOXIC ACTIVITY (M) PC3
NCI-H187 [1] = experiment: Cytotoxic activity (M) panel, SCL NCI-H187; conditions: Homo sapiens, NCI-H187, read-out: CYTOTOXIC ACTIVITY (M) NCI-H187
FADU = experiment: Cytotoxic activity (M) panel, Pharnynx FADU; conditions: Homo sapiens, read-out: CYTOTOXIC ACTIVITY (M) FADU
MX-1 [2] = experiment: Cytotoxic activity (M) panel, Breast MX-1; conditions: Homo sapiens, MX1, read-out: CYTOTOXIC ACTIVITY (M) MX-1
Hs746t = experiment: Cytotoxic activity (M) panel, Gastric Hs746t; conditions: Homo sapiens, read-out: CYTOTOXIC ACTIVITY (M) Hs746t
DU-145 = experiment: Cytotoxic activity (M) panel, Prostate DU-145; conditions: Homo sapiens, DU-145, read-out: CYTOTOXIC ACTIVITY (M) DU-145
A549 [3] = experiment: Cytotoxic activity (M) panel, NSCL A549; conditions: Homo sapiens, A549, read-out: CYTOTOXIC ACTIVITY (M) A549
MEL-28 = experiment: Cytotoxic activity (M) panel, Melanoma Mel-28; conditions: Homo sapiens, SK-MEL-28, read-out: CYTOTOXIC ACTIVITY (M) Mel-28
SK-HEP-1 [4] = system: SK-HEP-1
Y-79 [5] = experiment: Cytotoxic activity (M) panel, Retinoblastoma Y-79; conditions: Homo sapiens, Y79, read-out: CYTOTOXIC ACTIVITY (M) Y-79
PANC-1 = experiment: Cytotoxic activity (M) panel, Pancreas PANC-1; conditions: Homo sapiens, PANC-1, read-out: CYTOTOXIC ACTIVITY (M) PANC-1
CHSA = experiment: Cytotoxic activity (M) panel, Chondrosarcoma CHSA; conditions: read-out: CYTOTOXIC ACTIVITY (M) CHSA
LNCAP = experiment: Cytotoxic activity (M) panel, Prostate LNCAP; conditions: Homo sapiens, read-out: CYTOTOXIC ACTIVITY (M) LNCAP
HT-29 = experiment: Cytotoxic activity (M) panel, Colon HT-29; conditions: Homo sapiens, HT-29, read-out: CYTOTOXIC ACTIVITY (M) HT-29
SW-694 = experiment: Cytotoxic activity (M) panel, Fibrosarcoma SW-694; conditions: read-out: CYTOTOXIC ACTIVITY (M) SW-694
MX-1 [6] = system: MX-1
NCI-H187 [7] = system: NCI-H187
A549 [8] = system: A549
Y-79 [9] = system: Y-79
SK-HEP-1 [10] = experiment: Cytotoxic activity (M) panel, Liver SK-HEP-1; conditions: Homo sapiens, SK-HEP1, read-out: CYTOTOXIC ACTIVITY (M) SK-HEP-1

SMILES | IC50 5637 | IC50 (OSA-FH) | IC50 (786-O) | IC50 (SK-OV-3) | IC50 (FADU) | IC50 (Hs746t) | IC50 (DU-145) | IC50 (MEL-28) | IC50 (PANC-1) | IC50 (CHSA) | IC50 (LNCAP) | IC50 (HT-29) | IC50 (SW-694) | further results
COc1c(C)cc2c(c1O)[C@@H]1C3Cc4c(OC(C)=O)c(C)c5c(c4[C@H](COC(=O)/C=C/c4cccc(C(F)(F)F)c4)N3[C@@H](O)[C@H](C2)N1C)OCO5 (stereo partly shown) [drawing 233] | 1.14e-08 M | 6.34e-08 M | 1.46e-08 M | 7.03e-06 M | 4.59e-07 M | 3.57e-08 M | 7.03e-08 M | 1.76e-08 M | 1.03e-08 M | 2.53e-08 M | 5.98e-07 M | 4.08e-07 M | 3.38e-06 M | IC50 (PC3): 7.88e-08 M; IC50 (NCI-H187 [1]): 8.02e-10 M; IC50 (MX-1 [2]): 2.81e-08 M; IC50 (A549 [3]): 2.81e-06 M; CYTOTOXIC ACTIVITY (M) SK-HEP-1 (SK-HEP-1 [4]): 1.63 to 08 M; IC50 (Y-79 [5]): 8.85e-10 M
COc1c(C)cc2c(c1O)[C@@H]1C3Cc4c(OC(C)=O)c(C)c5c(c4[C@H](COC(=O)/C=C/c4ccccc4)N3[C@@H](O)[C@H](C2)N1C)OCO5 (stereo partly shown) [drawing 234] | 1.71e-08 M | 5.26e-07 M | 5.26e-12 M | 7.78e-08 M | 2.46e-08 M | 1.24e-09 M | 1.56e-06 M | 5.89e-08 M | 9.47e-09 M | 4.49e-08 M | 6.83e-08 M | 2.96e-07 M | 6.69e-06 M | pIC50 (MX-1 [6]): 12.14; pIC50 (NCI-H187 [7]): 13.11; CYTOTOXIC ACTIVITY (M) A549 (A549 [8]): 1.56 to 05 M; pIC50 (Y-79 [9]): 13.11; IC50 (SK-HEP-1 [10]): 1.94e-09 M
